According to patent US9220794B2, “Two-photon fluorescent probes for imaging of total sulfide in live cell and tissue, and quantitative estimation of total sulfide concentration using the same” (Korea University Research and Business Foundation, priority 2013, dated 2015):

Key:
rat colon tissue [1] = experiment: Kinetic measurement of total sulfide in rat colon tissue slices; assay type: in vivo; conditions: probe 2-6; for kobs in colon tissue: after 5-FU 150 mg/kg i.p., 8 hours; for total sulfide concentration in colon tissue: after 5-FU treatment
Experimental: To quantitatively estimate the total sulfide concentration, kinetic experiments were performed in the colon tissue labeled with the compound of [Chemical Formula 2-6].
(§1) Male Sprague-Dawley rats (235-265 g) were divided into two groups (5-FU and control groups). In the 5-FU group, 150 mg/kg of 5-FU (SoloPak Laboratories, Franklin Park, Ill.) were intraperitoneally injected into the rats. The rats of the control group were injected with saline. Each group consisted of 4 rats.
(§2) 8 hours after the intraperitoneal injection, all the rats were sacrificed. Laparotomy was performed after anesthetizing the rats.
Kinetic experiments in rat colon tissue were performed using four colon slices obtained from four rats. Two sets of experiments were performed for each slice. In each set, TPEF intensities from 8 ROI's/section were collected at depths of 90-150 μm (mucosa) and 151-170 μm (submucosa) in the colon tissue labeled with the compound of [Chemical Formula 2-6] and averaged.
The rate constant (kobs) was measured from 7 and 3 sections of the mucosa and submucosa tissues, respectively, in order to obtain 112 kobs and 48 kobs values, respectively. The rate constant (kobs) was expressed as mean±SD and p was set to be smaller than 0.05.

rat colon tissue [2] = experiment: Ratiometric TPM imaging (F2/F1) of rat colon slices; assay type: in vivo; conditions: rats given 5-FU 150 mg/kg i.p., 8 hours, probe 2-6
Experimental: The utility of the compound of [Chemical Formula 2-6] was investigated in living tissues from a 5-week-old rat colon. The inventors were particularly interested in the mucosa, muscularis mucosae and submucosa because they are invaded in the early stage of tumor (FIG. 4c). Since it takes a long time to stain the tissues during which they may be deformed, excess amount (20 μM) of the compound of [Chemical Formula 2-6] was used to facilitate staining.
Because the structure of the colon tissue is heterogeneous, TPEF intensities were acquired from 150 sections along the z-direction at a depth of about 90-170 μm using two detection windows (1 and 2) to visualize the overall sulfide distribution.
Therefore, the sections were divided into two regions and they were assigned as mucosa (90-150 μm) and submucosa including the muscularis mucosae (151-170 μm).
as §1
All the rats were injected between 9 pm and 12 midnight, were allowed free access to food and water and were housed in the same room with 8-hour cycles.
as §2
Slices were prepared from the colon of the rats. The colon slices were cut into 2-cm long segments, opened by longitudinal incision and then treated with Dulbecco's phosphate-buffered saline (D-PBS; […]).
The colon slices were incubated with the compound of [Chemical Formula 2-6] (20 μM) in D-PBS bubbled with 95% O2 and 5% CO2 at 37° C. The colon slices were then moved to glass-bottomed dishes, washed 3 times with D-PBS and observed under a confocal multiphoton microscope.
TPEF intensities were collected using detection windows of 390-450 nm and 520-650 nm, with 110 sections at a depth of 90-150 μm (mucosa) and 40 sections at a depth of 151-170 μm (submucosa).
Then ratiometric images were constructed from the TPEF intensities collected using the two detection window. The F2/F1 ratio was expressed as mean±SD and p was set to be smaller than 0.05.

[3] = One-photon absorption and emission spectra, fluorescence quantum yield; assay type: physicochemical; conditions: for 10^−4 ε: value is ε×10^−4
Experimental: The solvatochromic effect observed for the compound of [Chemical Formula 2-6] may have resulted from the […] dipole moment.
Absorption spectra were recorded on the Hewlett-Packard 8453 diode array spectrophotometer and fluorescence spectra were obtained with the Amico-Bowman series 2 luminescence spectrometer with a 1-cm standard quartz cell.

[4] = Measurement of two-photon cross section (fs fluorescence technique, rhodamine 6G reference); assay type: physicochemical; conditions: for Φδmax, two-photon action cross section: uncertainty ±15%
Experimental: Two-photon cross section (δ) was determined using a femtosecond (fs) fluorescence measurement technique.
The compound of [Chemical Formula 2-5] and the compound of [Chemical Formula 2-6] were dissolved in 20 mM HEPES buffer (pH 7.2) and 3.0×10^−6 M HEPES/EtOH (1/1) and then two-photon induced fluorescence intensity was measured at 740-940 nm using rhodamine 6G as a reference, whose two-photon property has been well characterized. The two-photon fluorescence intensities of the reference and the compound of [Chemical Formula 2-6] and the compound of [Chemical Formula 2-5] were determined.
The two-photon cross section was calculated from δ=δr(Ssφrφrcr)/(Srφsφscs). In the equation, the subscripts s and r stand for the sample, i.e., the compound of [Chemical Formula 2-6] and the compound of […], respectively. S denotes the intensity of the signal collected using a CCD detector, φ is the fluorescence quantum yield (measured using coumarin 307 and rhodamine B according to the literature), […] fluorescence collection efficiency, and c is the number density of molecules in solution. δr is the two-photon cross section of the reference molecule.

[5] = pH sensitivity of the fluorescence; assay type: physicochemical; conditions: biologically relevant pH range
HeLa cells [6] = experiment: Two-photon excited fluorescence spectra of labeled HeLa cells; assay type: cell-based, human
Experimental: Accordingly, it can be seen that HEPES/EtOH (1/1) has polarity similar to that of the cellular environment.
This confirms again that HEPES/EtOH (1/1) is a good model of the cellular environment and HS^− can be detected by TPM using the compound of [Chemical Formula 2-6].
HeLa human cervical carcinoma cells were acquired from the ATCC (Manassas, Va., USA). The cells were cultured in DMEM (WelGene, Inc., Seoul, Korea) supplemented with heat-inactivated 10% FBS (WelGene), penicillin (100 units/mL) and streptomycin ([…]).
For labeling, the growth medium was removed and replaced with DMEM without FBS. The cells were incubated with the compound of [Chemical Formula 2-6] ([…]) for 30 minutes, washed 3 times with FBS-free DMEM and imaged.
The TPM images were obtained with the DM IRE2 microscope (Leica) by exciting the probes with a mode-locked titanium-sapphire laser source (Coherent Chameleon, 90 MHz, 200 fs) set at a wavelength of 750 nm and an output power of 1380 mW, which corresponded to an average power of approximately 2 mW in the focal plane.

HeLa cells [7] = experiment: Kinetic estimation of total sulfide concentration in HeLa cells (TPEF); assay type: cell-based, human
Experimental: To quantitatively estimate the total sulfide concentration in living cells, the TPEF intensity of HeLa cells labeled with the compound of [Chemical Formula 2-6] was monitored in the absence and presence of Na2S, cysteine (Cys) and glutathione (GSH) with 20-30 minute intervals.
Since H2S and HS^− are in equilibrium and [H2S]/[HS^−]=[H^+]/Ka=0.794 in HEPES/EtOH (1/1, pH=7.2), it seems appropriate to present the total sulfide concentration ([H2S]+[HS^−]).
Kinetic experiments in HeLa cells were conducted in the same manner except that TPEF intensities from HeLa cells labeled with the compound of [Chemical Formula 2-6] upon excitation at 750 nm were monitored with 20-30 minute intervals.
The average TPEF intensities at given time and the SB2/SA1 ratio was obtained by dividing the TPEF intensity of [Chemical Formula 2-6] at 390-450 nm by that of [Chemical Formula 2-5] at 525-650 nm in the HeLa cells (FIG. 1b) were used in the kobs calculation.
The kobs value was measured at 10 regions of interest (ROIs) from three independent cell lines.
To evaluate the effect of Na2S, cysteine and GSH, HeLa cells were incubated with the compound of [Chemical Formula 2-6] (2 μM) and then treated with Na2S (100, 300 μM), cysteine (500 μM) and GSH (500 μM) for 30 minutes. The cells were then washed 3 times with FBS-free DMEM and subjected to kinetic measurement.

physchem = conditions: pH 7.2
Experimental: The pKa value of H2S in HEPES/EtOH (1/1, pH 7.2) was estimated by using the following equations. HS^−+H2O⇄H2S+HO^− K1=[H2S][HO^−]/[HS^−] (1) H2O⇄H^++HO^− Kw=[H^+][HO^−] (2) H2S⇄H^++HS^− Ka=[H^+][HS^−]/[H2S]=Kw/K1 (3)
First, the pH of the solution containing 10.0 mM NaSH was measured in H2O/EtOH (1/1) at 37.0° C. using a pH meter.
The K1 value was calculated from the equation (1) using [HS^−]o=10.0 mM and pH=9.00.
The pKa value of H2S in HEPES/EtOH (1/1, pH 7.2) was then calculated from the equation (3) using K1=1.00×10^−8M and pKw=15.10 reported in H2O/EtOH (1/1).

[8] = HEPES buffer (20 mM HEPES, 100 mM KCl, pH 7.4)
[9] = cells treated with 500 μM additive, probe 2-6

With `O=c1[nH]cc(F)c(=O)[nH]1` [5-fluorouracil, reference compound] the “kobs in colon tissue” value (rat colon tissue [1]; mucosa) was “(4.0±0.7)×10^−5 s^−1”, the “total sulfide concentration in colon tissue” value (rat colon tissue [1]; mucosa) was 14 ± 3 µM and the “kobs in colon tissue” value (rat colon tissue [1]; submucosa) was “(2.3±0.6)×10^−5 s^−1”. For the same compound, the “total sulfide concentration in colon tissue” value (rat colon tissue [1]; submucosa) was 7.9 ± 2.2 µM, the “emission ratio F2/F1” value (rat colon tissue [2]; mucosal layer) was 0.98±0.07 and the “emission ratio F2/F1” value (rat colon tissue [2]; submucosa) was 0.84±0.05.
For `COCCOCCC1(CCOCCOC)c2cc(N)ccc2-c2ccc(-c3nc4ccccc4s3)cc21` [Chemical Formula 2-5], the “Δλ^FImax, shift of emission spectrum with solvent polarity” value ([3]; 1,4-dioxane<DMF<EtOH<HEPES/EtOH (1/1)<HEPES buffer) was 95 nm, the “Φ, fluorescence quantum yield” value ([3]; EtOH) was 0.87 and the “λ^(1)max, one-photon absorption maximum” value ([3]; EtOH) was 381 nm. For the same compound, the “λ^flmax, one-photon emission maximum” value ([3]; EtOH) was 498 nm, the “10^−4 ε” value ([3]; EtOH) was “(4.81) M^−1cm^−1” and the “Φ, fluorescence quantum yield” value ([3]; HEPES buffer) was 0.46. The “λ^(1)max, one-photon absorption maximum” value [3, 8] was 363 nm, the “λ^flmax, one-photon emission maximum” value [3, 8] was 548 nm and the “ε at maximum absorption” value ([3]; HEPES buffer, pH 7.4) was 39100 M⁻¹ cm⁻¹. For the same compound, the “Φ, fluorescence quantum yield” value ([3]; HEPES/EtOH (1/1)) was 0.81, the “λ^(1)max, one-photon absorption maximum” value ([3]; HEPES/EtOH (1/1)) was 368 nm and the “λ^flmax, one-photon emission maximum” value ([3]; HEPES/EtOH (1/1)) was 530 nm. For the same compound, the “10^−4 ε” value ([3]; HEPES/EtOH (1/1)) was “(4.77) M^−1cm^−1”, the “10^−4 ε” value ([3]; HEPES) was “(3.91) M^−1cm^−1” and the “λ^(2)max, two-photon maximum” value ([4]; HEPES) was 750 nm. For the same compound, the “Φδmax, two-photon action cross section” value ([4]; HEPES buffer, 2-6 at 740 nm, 2-5 at 750 nm) was 52 GM, the “λ^(2)max, two-photon maximum” value ([4]; HEPES/EtOH (1/1)) was 750 nm and the “increase of action cross section (φδ) in HEPES/EtOH (1/1) versus HEPES buffer” value ([4]; HEPES/EtOH (1/1) vs HEPES buffer) was “about 2 fold”. The “Φδmax, two-photon action cross section” value ([4]; HEPES/EtOH (1/1), GM = 10^−50 cm^4s/photon) was 94 GM, the pH sensitivity [5] was “pH-insensitive” and the “λ^flmax, maximum emission in cells” value (HeLa cells [6]) was 520 nm.
With `N[C@@H](CS)C(=O)O` [Cys, cysteine] the “kobs in labeled HeLa cells” value (HeLa cells [7]; [9]) was “(1.4±0.7)×10^−6 s^−1” and the “total sulfide concentration ([H2S]+[HS^−]) in HeLa cells” value (HeLa cells [7]; [9]) was 0.50 ± 0.23 µM.
In the case of `N[C@@H](CCC(=O)N[C@@H](CS)C(=O)NCC(=O)O)C(=O)O` [GSH, glutathione], the “kobs in labeled HeLa cells” value (HeLa cells [7]; [9]) is reported as “(6.3±1.8)×10^−6 s^−1” and the “total sulfide concentration ([H2S]+[HS^−]) in HeLa cells” value (HeLa cells [7]; [9]) is reported as 2.2 ± 0.6 µM.
Work on `S` [H2S, Hydrogen sulfide] yielded a pKa (physchem) of 7.1.
For `[Na+].[Na+].[S-2]` [Na2S], the “kobs in labeled HeLa cells” value (HeLa cells [7]; cells pretreated with 100 μM Na2S, probe 2-6) was “(2.6±0.9)×10^−6 s^−1”, the “total sulfide concentration ([H2S]+[HS^−]) in HeLa cells” value (HeLa cells [7]; cells pretreated with 100 μM Na2S, from kobs, k2=5.17 M^−1s^−1, [H2S]/[HS^−]=0.794) was 0.90 ± 0.32 µM and the “kobs in labeled HeLa cells” value (HeLa cells [7]; cells pretreated with 300 μM Na2S, probe 2-6) was “(7.9±1.9)×10^−6 s^−1”. The “total sulfide concentration ([H2S]+[HS^−]) in HeLa cells” value (HeLa cells [7]; cells pretreated with 300 μM Na2S, from kobs, k2=5.17 M^−1s^−1, [H2S]/[HS^−]=0.794) was 2.7 ± 0.7 µM.
